IC50 data for 34 compounds are collected here from US11878966B2, “Substituted 4-benzyl and 4-benzoyl piperidine derivates” (89BIO LTD, priority 2015, dated 2024).

This assay addresses T1, recombinant human baculovirus-expressed GST-tagged FASN (Homo sapiens, UniProt P49327).
T1 construct: GST; host or cells: baculovirus expression system (insect cells implied)
The experiment in a line: FASN enzyme activity assay: fluorescence-based detection of CoA with CPM. In kind it is biochemical. As to conditions: 5 nM FASN, 150 μM NADPH, 10 μM acetyl-CoA, 25 μM malonyl-CoA, 90 minutes incubation. In short, it runs like this:
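GST-tagged human FASN (5 nM, baculovirus-expressed) in 50 mM HEPES pH 7.5 with 150 μM NADPH, 10 μM acetyl-CoA and 25 μM malonyl-CoA, 0.5% DMSO, started with malonyl-CoA and run 90 min. CoA was detected with CPM (30 min; ex 390/em 530 nm). IC50 came from sigmoidal variable-slope fits of % inhibition.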

Structures are written as SMILES. pIC50: −log10 of the molar value.

T1 sequence (P49327 whole entry): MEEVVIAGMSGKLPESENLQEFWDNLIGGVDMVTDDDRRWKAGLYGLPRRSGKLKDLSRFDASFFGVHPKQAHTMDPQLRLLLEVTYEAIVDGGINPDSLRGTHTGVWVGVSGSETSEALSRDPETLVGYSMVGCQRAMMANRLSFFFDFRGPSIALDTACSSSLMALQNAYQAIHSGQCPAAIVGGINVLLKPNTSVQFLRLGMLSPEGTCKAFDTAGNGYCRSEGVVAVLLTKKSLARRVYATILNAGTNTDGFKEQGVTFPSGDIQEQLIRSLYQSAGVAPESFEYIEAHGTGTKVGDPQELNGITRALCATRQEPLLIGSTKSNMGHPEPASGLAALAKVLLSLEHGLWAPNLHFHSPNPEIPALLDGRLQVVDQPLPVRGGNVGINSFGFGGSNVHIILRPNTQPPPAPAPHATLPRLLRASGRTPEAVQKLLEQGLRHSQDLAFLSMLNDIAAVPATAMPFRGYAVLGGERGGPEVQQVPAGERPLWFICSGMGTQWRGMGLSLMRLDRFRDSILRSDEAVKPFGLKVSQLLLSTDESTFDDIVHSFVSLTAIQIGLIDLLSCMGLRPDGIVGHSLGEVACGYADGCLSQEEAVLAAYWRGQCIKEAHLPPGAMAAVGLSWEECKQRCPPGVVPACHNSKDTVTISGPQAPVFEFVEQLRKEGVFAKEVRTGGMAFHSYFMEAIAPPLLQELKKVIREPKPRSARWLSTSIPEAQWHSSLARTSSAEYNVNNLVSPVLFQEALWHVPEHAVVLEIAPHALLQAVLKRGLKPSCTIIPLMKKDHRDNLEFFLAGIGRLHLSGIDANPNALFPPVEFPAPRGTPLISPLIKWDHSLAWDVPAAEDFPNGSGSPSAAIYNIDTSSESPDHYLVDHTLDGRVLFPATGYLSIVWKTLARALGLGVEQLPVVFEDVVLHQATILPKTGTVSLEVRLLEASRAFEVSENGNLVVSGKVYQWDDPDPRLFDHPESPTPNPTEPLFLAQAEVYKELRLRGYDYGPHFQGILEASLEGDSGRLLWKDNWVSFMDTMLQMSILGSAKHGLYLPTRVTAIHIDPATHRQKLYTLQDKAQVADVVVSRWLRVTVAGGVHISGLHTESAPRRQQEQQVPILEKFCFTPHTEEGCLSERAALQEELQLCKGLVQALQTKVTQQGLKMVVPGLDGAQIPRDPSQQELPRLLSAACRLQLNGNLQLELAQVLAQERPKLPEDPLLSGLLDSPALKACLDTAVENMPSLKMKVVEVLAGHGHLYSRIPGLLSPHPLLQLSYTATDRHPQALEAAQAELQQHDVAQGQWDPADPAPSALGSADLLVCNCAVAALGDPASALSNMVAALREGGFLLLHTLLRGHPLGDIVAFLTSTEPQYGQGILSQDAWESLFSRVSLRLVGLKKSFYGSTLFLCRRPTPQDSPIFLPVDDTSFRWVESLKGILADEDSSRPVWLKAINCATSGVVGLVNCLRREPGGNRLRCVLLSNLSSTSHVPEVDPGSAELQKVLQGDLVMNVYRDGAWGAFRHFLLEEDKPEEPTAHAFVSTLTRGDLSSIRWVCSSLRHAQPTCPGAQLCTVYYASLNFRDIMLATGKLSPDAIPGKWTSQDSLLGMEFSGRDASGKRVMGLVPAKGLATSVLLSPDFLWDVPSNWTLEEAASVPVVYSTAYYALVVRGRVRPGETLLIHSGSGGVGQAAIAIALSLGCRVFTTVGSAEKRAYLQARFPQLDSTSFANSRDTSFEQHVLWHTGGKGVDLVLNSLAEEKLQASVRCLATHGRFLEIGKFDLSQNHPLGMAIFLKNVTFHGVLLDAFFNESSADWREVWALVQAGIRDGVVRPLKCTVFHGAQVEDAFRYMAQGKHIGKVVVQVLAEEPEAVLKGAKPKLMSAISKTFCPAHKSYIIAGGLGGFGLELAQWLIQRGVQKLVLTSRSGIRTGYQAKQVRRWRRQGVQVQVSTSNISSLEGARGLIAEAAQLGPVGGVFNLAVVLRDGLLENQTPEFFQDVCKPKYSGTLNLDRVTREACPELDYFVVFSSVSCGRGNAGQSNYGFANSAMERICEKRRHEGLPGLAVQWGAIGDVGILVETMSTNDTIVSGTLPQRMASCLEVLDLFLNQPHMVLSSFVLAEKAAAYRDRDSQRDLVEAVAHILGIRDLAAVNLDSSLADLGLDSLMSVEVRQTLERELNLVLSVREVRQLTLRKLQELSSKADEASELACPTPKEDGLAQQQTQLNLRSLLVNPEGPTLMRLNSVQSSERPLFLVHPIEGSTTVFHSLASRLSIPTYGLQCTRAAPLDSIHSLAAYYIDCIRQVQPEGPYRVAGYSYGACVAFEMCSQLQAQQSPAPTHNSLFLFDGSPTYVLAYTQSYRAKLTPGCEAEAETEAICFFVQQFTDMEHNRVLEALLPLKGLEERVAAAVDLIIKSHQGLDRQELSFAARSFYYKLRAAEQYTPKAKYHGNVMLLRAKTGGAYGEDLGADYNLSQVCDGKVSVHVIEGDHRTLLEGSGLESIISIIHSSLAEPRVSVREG

By pIC50 is commonly meant −log10 of the IC50, conventionally taken in molar units. Take `Cc1c(-c2ccc(C3(C4CCN(C(=O)[C@H]5CCCO5)CC4)CC3)cc2)ccc2cccnc12` [Example 79, (4-{1-[4-(8-Methylquinolin-7-yl)-phenyl]-cyclopropyl}-piperidin-1-yl)-(R)-tetrahydrofuran-2-yl-methanone]: the pIC50 was 5.00 to 6.00.
To `COCCOC(c1ccc(-c2ccc3cccnc3c2C)cc1)C1CCN(C(=O)[C@H]2CCCO2)CC1` (stereo partly drawn) [Example 80, (4-{(2-Methoxyethoxy)-[4-(8-methyl-quinolin-7-yl)-phenyl]-methyl}-piperidin-1-yl)-(R)-tetrahydrofuran-2-yl-methanone] belongs 7.00 to 9.00; to `CCC(=O)N1CCC(C(OCCOC)c2ccc(-c3ccc4cccnc4c3C)cc2)CC1` (stereo not shown) [Example 81, 1-(4-{(2-Methoxyethoxy)-[4-(8-methyl-quinolin-7-yl)-phenyl]-methyl}-piperidin-1-yl)-propan-1-one], 7.00 to 9.00; to `COCCOC(c1ccc(-c2cnc3ccccc3c2C)cc1)C1CCN(C(=O)[C@H]2CCCO2)CC1` (stereo partly drawn) [Example 83, (4-{(2-Methoxyethoxy)-[4-(4-methyl-quinolin-3-yl)-phenyl]-methyl}-piperidin-1-yl)-(R)-tetrahydrofuran-2-yl-methanone], 7.00 to 9.00.
To `Cc1c(-c2ccc(C(OCCCN3CCOCC3)C3CCN(C(=O)[C@H]4CCCO4)CC3)cc2)ccc2cccnc12` (stereo partly drawn) [Example 84, {4-[[4-(8-Methylquinolin-7-yl)-phenyl]-(3-morpholin-4-yl-propoxy)-methyl]-piperidin-1-yl}-(R)-tetrahydrofuran-2-yl-methanone] belongs 7.00 to 9.00; to `CCC(=O)N1CCC(C(OCCCN2CCOCC2)c2ccc(-c3ccc4cccnc4c3C)cc2)CC1` (stereo not shown) [Example 85, 1-{4-[[4-(8-Methylquinolin-7-yl)-phenyl]-(3-morpholin-4-yl-propoxy)-methyl]-piperidin-1-yl}-propan-1-one], 7.00 to 9.00; to `Cc1nccc2cc(-c3ccc(C(OCCCN4CCOCC4)C4CCN(C(=O)[C@H]5CCCO5)CC4)cc3)ccc12` (stereo partly drawn) [Example 86, {4-[[4-(1-Methylisoquinolin-6-yl)-phenyl]-(3-morpholin-4-yl-propoxy)-methyl]-piperidin-1-yl}-(R)-tetrahydrofuran-2-yl-methanone], 6.00 to 7.00.
Turning to `Cc1c(-c2ccc(C(OCCCN3CCOCC3)C3CCN(C(=O)[C@H]4CCCO4)CC3)cc2)cnc2ccccc12` (stereo partly shown) [Example 87], the negative logarithm of the IC50 (pIC50) was 7.00 to 9.00.
With `O=C([C@H]1CCCO1)N1CCC(C(OCCN2CCCC2)c2ccc(-c3cnc4ccccc4c3)cc2)CC1` (stereo partly drawn) [Example 88, {4-[(2-Pyrrolidin-1-yl-ethoxy)-(4-quinolin-3-yl-phenyl)-methyl]-piperidin-1-yl}-(R)-tetrahydrofuran-2-yl-methanone], the pIC50 is 6.00 to 7.00.
To `Cc1c(-c2ccc(C(OCCN3CCCC3)C3CCN(C(=O)[C@H]4CCCO4)CC3)cc2)ccc2cccnc12` (stereo partly drawn) [Example 89, {4-[[4-(8-Methylquinolin-7-yl)-phenyl]-(2-pyrrolidin-1-yl-ethoxy)-methyl]-piperidin-1-yl}-(R)-tetrahydrofuran-2-yl-methanone] belongs 7.00 to 9.00; to `Cc1nccc2cc(-c3ccc(C(OCCN4CCCC4)C4CCN(C(=O)[C@H]5CCCO5)CC4)cc3)ccc12` (stereo partly drawn) [Example 90, {4-[[4-(1-Methylisoquinolin-6-yl)phenyl]-(2-pyrrolidin-1-yl-ethoxy)-methyl]-piperidin-1-yl}-(R)-tetrahydrofuran-2-yl-methanone], 6.00 to 7.00.
Under `CCC(=O)N1CCC(C#N)(Cc2ccc(-c3ccc4cccnc4c3OC)cc2)CC1` [Example 92, 4-[4-(8-methoxyquinolin-7-yl)-benzyl]-1-propionylpiperidine-4-carbonitrile] stands 7.00 to 9.00; under `Cc1c(-c2ccc(CC3CCN(C(=O)[C@H]4CCCO4)CC3)cc2)ccc2nccn12` [Example 93, {4-[4-(5-Methyl-imidazo[1,2-a]pyridin-6-yl)-benzyl]-piperidin-1-yl}-(R)-tetrahydrofuran-2-yl-methanone], 7.00 to 9.00.
To `CCC(=O)N1CCC(Cc2ccc(-c3ccc4nccn4c3C)cc2)CC1` [Example 94, 1-{4-[4-(5-Methylimidazo[1,2-a]pyridin-6-yl)-benzyl]-piperidin-1-yl}-propan-1-one] belongs 6.00 to 7.00; to `Cc1c(-c2ccc(CC3CCN(C(=O)C4CC4)CC3)cc2)ccc2nccn12` [Example 95, Cyclopropyl-{4-[4-(5-methylimidazo[1,2-a]pyridin-6-yl)-benzyl]-piperidin-1-yl}-methanone], 6.00 to 7.00.
Take `Cc1c(-c2ccc(CC3CCN(C(=O)C4(O)CC4)CC3)cc2)ccc2nccn12` [Example 96, (1-Hydroxycyclopropyl)-{4-[4-(5-methylimidazo[1,2-a]pyridin-6-yl)-benzyl]-piperidin-1-yl}-methanone]: the negative-log IC50 (pIC50) is 7.00 to 9.00.
To `Cc1c(-c2ccc(CC3(F)CCN(C(=O)[C@H]4CCCO4)CC3)cc2)ccc2nccn12` [Example 97, (R)-(4-fluoro-4-(4-(5-methylimidazo[1,2-a]pyridin-6-yl)benzyl)piperidin-1-yl)(tetrahydrofuran-2-yl)methanone] belongs 7.00 to 9.00.
To `O=C(N1CCC(C2(c3ccc(-c4ccc5ncccc5c4)cc3)OCCO2)CC1)C(F)(F)F` [Example 98, 2,2,2-Trifluoro-1-{4-[2-(4-quinolin-6-yl-phenyl)-1,3-dioxolan-2-yl]-piperidin-1-yl}-ethanone] belongs 5.00 to 6.00; to `O=C(C1CC1)N1CCC(C2(c3ccc(-c4ccc5ncccc5c4)cc3)OCCO2)CC1` [Example 99, Cyclopropyl-{4-[2-(4-quinolin-6-yl-phenyl)-1,3-dioxolan-2-yl]-piperidin-1-yl}-methanone], 5.00 to 6.00; to `CN(C)S(=O)(=O)N1CCC(C2(c3ccc(-c4ccc5ncccc5c4)cc3)OCCO2)CC1` [Example 100, 4-[2-(4-Quinolin-6-yl-phenyl)-1,3-dioxolan-2-yl]-piperidine-1-sulfonic acid dimethylamide], 5.00 to 6.00.
Consider `CCOC(=O)N1CCC(C2(c3ccc(-c4ccc5ncccc5c4)cc3)OCCO2)CC1` [Example 101, 4-[2-(4-Quinolin-6-yl-phenyl)-1,3-dioxolan-2-yl]-piperidine-1-carboxylic Acid Ethyl Ester], for which the pIC50 was 5.00 to 6.00.
On to `CC(C)C(=O)N1CCC(C2(c3ccc(-c4ccc5ncccc5c4)cc3)OCCO2)CC1` [Example 102, 2-Methyl-1-{4-[2-(4-quinolin-6-yl-phenyl)-1,3-dioxolan-2-yl]-piperidin-1-yl}-propan-1-one], for which the pIC50 was 5.00 to 6.00.
To `CN(C)C(=O)N1CCC(C2(c3ccc(-c4ccc5ncccc5c4)cc3)OCCO2)CC1` [Example 103, 4-[2-(4-Quinolin-6-yl-phenyl)-1,3-dioxolan-2-yl]-piperidine-1-carboxylic acid dimethylamide] belongs 5.00 to 6.00.
To `CCC(=O)N1CCC(C2(c3ccc(-c4ccc5ncccc5c4)cc3)OCCO2)CC1` [Example 104, 1-{4-[2-(4-Quinolin-6-yl-phenyl)-1,3-dioxolan-2-yl]-piperidin-1-yl}-propan-1-one] belongs 5.00 to 6.00; to `CCCC(=O)N1CCC(C2(c3ccc(-c4ccc5ncccc5c4)cc3)OCCO2)CC1` [Example 105, 1-{4-[2-(4-Quinolin-6-yl-phenyl)-1,3-dioxolan-2-yl]-piperidin-1-yl}-butan-1-one], 5.00 to 6.00; to `CC(=O)N1CCC(C2(c3ccc(-c4ccc5ncccc5c4)cc3)OCCO2)CC1` [Example 106, 1-{4-[2-(4-Quinolin-6-yl-phenyl)-1,3-dioxolan-2-yl]-piperidin-1-yl}-ethanone], 5.00 to 6.00.
For the compound `O=C(NC1CCCC1)N1CCC(C2(c3ccc(-c4ccc5ncccc5c4)cc3)OCCO2)CC1` [Example 107, 4-[2-(4-Quinolin-6-yl-phenyl)-1,3-dioxolan-2-yl]-piperidine-1-carboxylic Acid Cyclopentylamide], the pIC50 was 5.00 to 6.00.
To `c1cnc2ccc(-c3ccc(C4(C5CCN(C6CCOCC6)CC5)OCCO4)cc3)cc2c1` [Example 108, 6-(4-{2-[1-(Tetrahydropyran-4-yl)-piperidin-4-yl]-1,3-dioxolan-2-yl}-phenyl)-quinoline] belongs 5.00 to 6.00.
To `CC(C)C(=O)N1CCC(C(=O)c2ccc(-c3ccc4ncccc4c3)cc2)CC1` [Example 109, 2-Methyl-1-[4-(4-quinolin-6-yl-benzoyl)-piperidin-1-yl]-propan-1-one] belongs 5.00 to 6.00; to `CC(C)C(=O)N1CCC(C(O)c2ccc(-c3ccc4ncccc4c3)cc2)CC1` (stereo not shown) [Example 110, 1-{4-[Hydroxy-(4-quinolin-6-yl-phenyl)-methyl]-piperidin-1-yl}-2-methyl-propan-1-one], 5.00 to 6.00; to `CC(C)C(=O)N1CCC(C2(c3ccc(-c4ccc5cccnc5c4)cc3)OCCO2)CC1` [Example 111, 2-Methyl-1-{4-[2-(4-quinolin-7-yl-phenyl)-1,3-dioxolan-2-yl]-piperidin-1-yl}-propan-1-one], 5.00 to 6.00.
Under `O=C(C1CC1)N1CCC(C2(c3ccc(-c4ccc5cccnc5c4)cc3)OCCO2)CC1` [Example 112, Cyclopropyl-{4-[2-(4-quinolin-7-yl-phenyl)-1,3-dioxolan-2-yl]-piperidin-1-yl}-methanone] stands 5.00 to 6.00.
Turning to `CCCC(=O)N1CCC(C2(c3ccc(-c4ccc5cccnc5c4)cc3)OCCO2)CC1` [Example 113, 1-{4-[2-(4-Quinolin-7-yl-phenyl)-1,3-dioxolan-2-yl]-piperidin-1-yl}-butan-1-one], the pIC50 is 5.00 to 6.00.
To `CCC(=O)N1CCC(C2(c3ccc(-c4ccc5cccnc5c4)cc3)OCCO2)CC1` [Example 114, 1-{4-[2-(4-Quinolin-7-yl-phenyl)-1,3-dioxolan-2-yl]-piperidin-1-yl}-propan-1-one] belongs 6.00 to 7.00.
